Laboratory results published in patent publication US6878730B2, “Quaternary ammonium compounds” (Pharmacia & UpJohn, priority 2002, dated 2005).

Assay: Aerosol treatment for dyspnea, FEV1/FVC ratio
Format: in vivo
Details: aerosol formulation, 50 μg every 8 hr continuously for dyspnea; after a week of treatment
Procedure: Ten minutes and 36 hours later, the mice are moved to whole body plethysmograph chambers. Bronchoconstriction is induced in mice by administration of an 80 mg/ml methacholine (MC) aerosol into the plethysmograph chambers for 5 minutes. The mice are allowed to inhale an aerosol containing 80 mg/ml methacholine following inhalation treatment with DPBS vehicle (Dulbecco's Phosphate Buffered Saline), or 80 mg/ml methacholine following inhalation treatment with 1.29 mg/ml of the title compound of example I. The average enhanced pause (Penh, lung resistance), corresponding to airflow resistance, is determined and statistically analyzed using Kruskal-Wallis one way ANOVA. In order to determine the baseline, saline aerosol (without methacholine) is also separately administered to the mice, treated with the compound of example I in an aerosol formulation, 50 μg every 8 hr continuously for dyspnea. After a week of treatment, the FEV1/FVC ratio improves to about 65%.

In the case of `C[N+]1(Cc2cccc(N)n2)CCC(NC(=O)[C@](O)(c2ccccc2)[C@@H]2CCC(F)(F)C2)CC1.[I-]` (stereo partly drawn) [Example I, (2R)-N-[1-(6-aminopyridin-2-ylmethyl)1-methylpiperdin-4-yl]-2-[(1R)-3,3,-difluorocyclopentyl]-2-hydroxy-2-phenylacetamide iodide], the FEV1/FVC ratio is reported as “about 65%”.
